# Source: ChEMBL document CHEMBL3044870, “Effect of clomazone on various market classes of dry beans” (Crop Prot, 2007)
# Key:
# Assay type in all cases: organism-based
# Details in all cases: in vivo, other
# Phaseolus vulgaris [1] = test: Phytotoxicity against Phaseolus vulgaris (kidney beans) assessed as plant height at 1116 g a.i./ha applied pre-emergence 1 to 2 days post-planting measured on day 28 post-emergence (reference value: 37 cm)
# Phaseolus vulgaris [2] = test: Phytotoxicity against Phaseolus vulgaris (black beans) assessed as shoot dry weight at 2232 g a.i./ha applied pre-emergence 1 to 2 days post-planting measured on day 42 post-emergence (reference value: 165 g/m)
# Phaseolus vulgaris [3] = test: Phytotoxicity against Phaseolus vulgaris (yellow eye beans) assessed as shoot dry weight at 2232 g a.i./ha applied pre-emergence 1 to 2 days post-planting measured on day 42 post-emergence (reference value: 162 g/m)
# Phaseolus vulgaris [4] = test: Phytotoxicity against Phaseolus vulgaris (dry beans) assessed as visual crop injury at 1116 g a.i./ha applied pre-emergence 1 to 2 days post-planting measured on day 14 post-emergence relative to control
# Phaseolus vulgaris [5] = test: Phytotoxicity against Phaseolus vulgaris (pinto beans) assessed as visual crop injury at 1116 g a.i./ha applied pre-emergence 1 to 2 days post-planting measured on day 14 post-emergence relative to control
# Phaseolus vulgaris [6] = test: Phytotoxicity against Phaseolus vulgaris (black beans) assessed as yield at 1116 g a.i./ha applied pre-emergence 1 to 2 days post-planting measured on day 42 post-emergence (reference value: 3.6 tons/ha)
# Phaseolus vulgaris [7] = test: Phytotoxicity against Phaseolus vulgaris (cranberry beans) assessed as yield at 1116 g a.i./ha applied pre-emergence 1 to 2 days post-planting measured on day 42 post-emergence (reference value: 3.1 tons/ha)
# Phaseolus vulgaris [8] = test: Phytotoxicity against Phaseolus vulgaris (dry beans) assessed as visual crop injury at 2232 g a.i./ha applied pre-emergence 1 to 2 days post-planting measured on day 28 post-emergence relative to control
# Phaseolus vulgaris [9] = test: Phytotoxicity against Phaseolus vulgaris (brown beans) assessed as yield at 1116 g a.i./ha applied pre-emergence 1 to 2 days post-planting measured on day 42 post-emergence (reference value: 2.5 tons/ha)
# Phaseolus vulgaris [10] = test: Phytotoxicity against Phaseolus vulgaris (kidney beans) assessed as yield at 1116 g a.i./ha applied pre-emergence 1 to 2 days post-planting measured on day 42 post-emergence (reference value: 2.3 tons/ha)
# Phaseolus vulgaris [11] = test: Phytotoxicity against Phaseolus vulgaris (otebo beans) assessed as plant height at 1116 g a.i./ha applied pre-emergence 1 to 2 days post-planting measured on day 28 post-emergence (reference value: 38 cm)
# Phaseolus vulgaris [12] = test: Phytotoxicity against Phaseolus vulgaris (otebo beans) assessed as visual crop injury at 1116 g a.i./ha applied pre-emergence 1 to 2 days post-planting measured on day 14 post-emergence relative to control
# Phaseolus vulgaris [13] = test: Phytotoxicity against Phaseolus vulgaris (white beans) assessed as shoot dry weight at 2232 g a.i./ha applied pre-emergence 1 to 2 days post-planting measured on day 42 post-emergence (reference value: 175 g/m)
# Phaseolus vulgaris [14] = test: Phytotoxicity against Phaseolus vulgaris (pinto beans) assessed as shoot dry weight at 2232 g a.i./ha applied pre-emergence 1 to 2 days post-planting measured on day 42 post-emergence (reference value: 168 g/m)
# Phaseolus vulgaris [15] = test: Phytotoxicity against Phaseolus vulgaris (yellow eye beans) assessed as plant height at 1116 g a.i./ha applied pre-emergence 1 to 2 days post-planting measured on day 28 post-emergence (reference value: 38 cm)
# Phaseolus vulgaris [16] = test: Phytotoxicity against Phaseolus vulgaris (kidney beans) assessed as plant height at 2232 g a.i./ha applied pre-emergence 1 to 2 days post-planting measured on day 28 post-emergence (reference value: 37 cm)
# Phaseolus vulgaris [17] = test: Phytotoxicity against Phaseolus vulgaris (dry beans) assessed as visual crop injury at 2232 g a.i./ha applied pre-emergence 1 to 2 days post-planting measured on day 14 post-emergence relative to control
# Phaseolus vulgaris [18] = test: Phytotoxicity against Phaseolus vulgaris (cranberry beans) assessed as yield at 2232 g a.i./ha applied pre-emergence 1 to 2 days post-planting measured on day 42 post-emergence (reference value: 3.1 tons/ha)
# Phaseolus vulgaris [19] = test: Phytotoxicity against Phaseolus vulgaris (cranberry beans) assessed as plant height at 1116 g a.i./ha applied pre-emergence 1 to 2 days post-planting measured on day 28 post-emergence (reference value: 37 cm)
# Phaseolus vulgaris [20] = test: Phytotoxicity against Phaseolus vulgaris (pinto beans) assessed as yield at 2232 g a.i./ha applied pre-emergence 1 to 2 days post-planting measured on day 42 post-emergence (reference value: 3.1 tons/ha)
# Phaseolus vulgaris [21] = test: Phytotoxicity against Phaseolus vulgaris (kidney beans) assessed as visual crop injury at 2232 g a.i./ha applied pre-emergence 1 to 2 days post-planting measured on day 14 post-emergence relative to control
# Phaseolus vulgaris [22] = test: Phytotoxicity against Phaseolus vulgaris (yellow eye beans) assessed as visual crop injury at 2232 g a.i./ha applied pre-emergence 1 to 2 days post-planting measured on day 14 post-emergence relative to control
# Phaseolus vulgaris [23] = test: Phytotoxicity against Phaseolus vulgaris (yellow eye beans) assessed as yield at 2232 g a.i./ha applied pre-emergence 1 to 2 days post-planting measured on day 42 post-emergence (reference value: 2.3 tons/ha)
# Phaseolus vulgaris [24] = test: Phytotoxicity against Phaseolus vulgaris (pinto beans) assessed as plant height at 2232 g a.i./ha applied pre-emergence 1 to 2 days post-planting measured on day 28 post-emergence (reference value: 38 cm)
# Phaseolus vulgaris [25] = test: Phytotoxicity against Phaseolus vulgaris (black beans) assessed as yield at 2232 g a.i./ha applied pre-emergence 1 to 2 days post-planting measured on day 42 post-emergence (reference value: 3.6 tons/ha)
# Phaseolus vulgaris [26] = test: Phytotoxicity against Phaseolus vulgaris (brown beans) assessed as plant height at 2232 g a.i./ha applied pre-emergence 1 to 2 days post-planting measured on day 28 post-emergence (reference value: 37 cm)
# Phaseolus vulgaris [27] = test: Phytotoxicity against Phaseolus vulgaris (brown beans) assessed as visual crop injury at 1116 g a.i./ha applied pre-emergence 1 to 2 days post-planting measured on day 14 post-emergence relative to control
# Phaseolus vulgaris [28] = test: Phytotoxicity against Phaseolus vulgaris (brown beans) assessed as plant height at 1116 g a.i./ha applied pre-emergence 1 to 2 days post-planting measured on day 28 post-emergence (reference value: 37 cm)
# Phaseolus vulgaris [29] = test: Phytotoxicity against Phaseolus vulgaris (brown beans) assessed as yield at 2232 g a.i./ha applied pre-emergence 1 to 2 days post-planting measured on day 42 post-emergence (reference value: 2.5 tons/ha)
# Phaseolus vulgaris [30] = test: Phytotoxicity against Phaseolus vulgaris (cranberry beans) assessed as visual crop injury at 1116 g a.i./ha applied pre-emergence 1 to 2 days post-planting measured on day 14 post-emergence relative to control
# Phaseolus vulgaris [31] = test: Phytotoxicity against Phaseolus vulgaris (cranberry beans) assessed as plant height at 2232 g a.i./ha applied pre-emergence 1 to 2 days post-planting measured on day 28 post-emergence (reference value: 37 cm)
# Phaseolus vulgaris [32] = test: Phytotoxicity against Phaseolus vulgaris (otebo beans) assessed as visual crop injury at 2232 g a.i./ha applied pre-emergence 1 to 2 days post-planting measured on day 14 post-emergence relative to control
smiles,measurement,setting,value
CC1(C)CON(Cc2ccccc2Cl)C1=O [CLOMAZONE],Activity,Phaseolus vulgaris [1],35 cm
same,Activity,Phaseolus vulgaris [2],150 g/m
same,Activity,Phaseolus vulgaris [3],130 g/m
same,Activity,Phaseolus vulgaris [4],4%
same,Activity,Phaseolus vulgaris [5],4%
same,Crop_yield,Phaseolus vulgaris [6],3.3 tons/ha
same,Crop_yield,Phaseolus vulgaris [7],3.2 tons/ha
same,Activity,Phaseolus vulgaris [8],4%
same,Crop_yield,Phaseolus vulgaris [9],2.6 tons/ha
same,Crop_yield,Phaseolus vulgaris [10],2.3 tons/ha
same,Activity,Phaseolus vulgaris [11],37 cm
same,Activity,Phaseolus vulgaris [12],3%
same,Activity,Phaseolus vulgaris [13],154 g/m
same,Activity,Phaseolus vulgaris [14],146 g/m
same,Activity,Phaseolus vulgaris [15],36 cm
same,Activity,Phaseolus vulgaris [16],33 cm
same,Activity,Phaseolus vulgaris [17],10%
same,Crop_yield,Phaseolus vulgaris [18],3 tons/ha
same,Activity,Phaseolus vulgaris [19],35 cm
same,Crop_yield,Phaseolus vulgaris [20],3 tons/ha
same,Activity,Phaseolus vulgaris [21],10%
same,Activity,Phaseolus vulgaris [22],10%
same,Crop_yield,Phaseolus vulgaris [23],2.5 tons/ha
same,Activity,Phaseolus vulgaris [24],32 cm
same,Crop_yield,Phaseolus vulgaris [25],3.3 tons/ha
same,Activity,Phaseolus vulgaris [26],35 cm
same,Activity,Phaseolus vulgaris [27],3%
same,Activity,Phaseolus vulgaris [28],35 cm
same,Crop_yield,Phaseolus vulgaris [29],2.7 tons/ha
same,Activity,Phaseolus vulgaris [30],6%
same,Activity,Phaseolus vulgaris [31],32 cm
same,Activity,Phaseolus vulgaris [32],11%
